According to patent US20070117770A1, “Human ribosomal DNA (rDNA) and ribosomal RNA (rRNA) nucleic acids and uses thereof” (Cylene Pharmaceuticals, Inc., priority 2005, published 2007):
Where “and” joins values, the source holds several entries; their conditions need not be identical. Equal entries are not always repeated. Where two headings read alike, the source gives them in different places.

Tests used:
Assay in all cases: Protein kinase inhibition assay
Format in all cases: biochemical
Abl(h) = Abl(h) (Homo sapiens, UniProt P00519); conditions: for Mean (Counts - Blanks) / Activity (% Control) / Counts: 2.5 μM
Sequence of Abl(h) (P00519 whole entry): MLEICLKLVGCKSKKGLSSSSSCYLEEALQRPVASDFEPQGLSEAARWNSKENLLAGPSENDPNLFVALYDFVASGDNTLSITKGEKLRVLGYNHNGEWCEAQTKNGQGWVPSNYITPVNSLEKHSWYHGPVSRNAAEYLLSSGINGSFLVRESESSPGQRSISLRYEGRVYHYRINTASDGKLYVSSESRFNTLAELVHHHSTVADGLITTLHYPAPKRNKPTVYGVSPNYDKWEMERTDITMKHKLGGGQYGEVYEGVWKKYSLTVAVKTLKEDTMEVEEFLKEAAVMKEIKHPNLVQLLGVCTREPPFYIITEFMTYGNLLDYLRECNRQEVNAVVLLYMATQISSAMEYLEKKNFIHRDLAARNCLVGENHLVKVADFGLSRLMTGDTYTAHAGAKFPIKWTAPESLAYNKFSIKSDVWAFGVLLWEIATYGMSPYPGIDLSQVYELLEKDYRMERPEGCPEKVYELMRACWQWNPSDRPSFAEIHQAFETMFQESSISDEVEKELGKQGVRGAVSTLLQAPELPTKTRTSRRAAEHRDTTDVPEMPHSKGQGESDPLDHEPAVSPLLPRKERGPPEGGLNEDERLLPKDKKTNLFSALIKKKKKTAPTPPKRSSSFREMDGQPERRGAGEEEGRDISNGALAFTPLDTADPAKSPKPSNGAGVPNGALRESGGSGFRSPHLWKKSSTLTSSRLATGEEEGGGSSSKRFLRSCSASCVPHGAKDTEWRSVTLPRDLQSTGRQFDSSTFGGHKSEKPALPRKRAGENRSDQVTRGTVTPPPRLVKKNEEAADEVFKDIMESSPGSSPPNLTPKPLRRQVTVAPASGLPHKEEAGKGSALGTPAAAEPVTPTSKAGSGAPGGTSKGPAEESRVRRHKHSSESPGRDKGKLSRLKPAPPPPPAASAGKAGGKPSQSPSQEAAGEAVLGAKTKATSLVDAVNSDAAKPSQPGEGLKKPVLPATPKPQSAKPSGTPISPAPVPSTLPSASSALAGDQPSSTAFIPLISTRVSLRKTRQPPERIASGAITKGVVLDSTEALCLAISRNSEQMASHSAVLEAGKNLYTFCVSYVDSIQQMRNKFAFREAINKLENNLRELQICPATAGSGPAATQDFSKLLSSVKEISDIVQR
Method: (§1) Certain compounds were tested for activity in protein kinase inhibition assays. All substrates were dissolved and diluted to working stocks in de-ionized water, apart from histone H1 (10× working stock in 20 mM MOPS pH 7.0), PDKtide (10× working stock in 50 mM Tris pH 7.0) ATF2 (which is typically stored at a 20× working stock in 50 mM Tris pH 7.5, 150 mM NaCl, 0.1 mM EGTA, 0.03% Brij-35, 50% glycerol, 1 mM benzamidine, 0.2 mM PMSF and 0.1% R-mercaptoethanol), KKLNRTLSFAEPG (SEQ ID NO:203) and RRRLSFAEPG (SEQ ID NO:204) (50 mM HEPES pH 7.4) and GGEEEEYFELVKKKK (SEQ ID NO:205) (20 mM MOPS pH 7.0). All kinases were pre-diluted to a 10× working concentration prior to addition into the assay. The composition of the dilution buffer for each kinase is detailed below.
(§2) In a final reaction volume of 25 μl, Abl (h) (5-10 mU) is incubated with 8 mM MOPS pH 7.0, 0.2 mM EDTA, 50 μM EAIYAAPFAKKK (SEQ ID NO:206), 10 mM MgAcetate and [gamma-33P-ATP] (specific activity approx. 500 cpm/pmol, concentration as required). The reaction is initiated by the addition of the MgATP mix. After incubation for 40 minutes at room temperature, the reaction is stopped by the addition of 5 μl of a 3% phosphoric acid solution. 10 μl of the reaction is then spotted onto a P30 filtermat and washed three times for 5 minutes in 75 mM phosphoric acid and once in methanol prior to drying and scintillation counting.

IRR(h) = IRR(h) (Homo sapiens, UniProt P14616); conditions: read-out: percent residual activity of IRR(h)
Sequence of IRR(h) (P14616 27-1297): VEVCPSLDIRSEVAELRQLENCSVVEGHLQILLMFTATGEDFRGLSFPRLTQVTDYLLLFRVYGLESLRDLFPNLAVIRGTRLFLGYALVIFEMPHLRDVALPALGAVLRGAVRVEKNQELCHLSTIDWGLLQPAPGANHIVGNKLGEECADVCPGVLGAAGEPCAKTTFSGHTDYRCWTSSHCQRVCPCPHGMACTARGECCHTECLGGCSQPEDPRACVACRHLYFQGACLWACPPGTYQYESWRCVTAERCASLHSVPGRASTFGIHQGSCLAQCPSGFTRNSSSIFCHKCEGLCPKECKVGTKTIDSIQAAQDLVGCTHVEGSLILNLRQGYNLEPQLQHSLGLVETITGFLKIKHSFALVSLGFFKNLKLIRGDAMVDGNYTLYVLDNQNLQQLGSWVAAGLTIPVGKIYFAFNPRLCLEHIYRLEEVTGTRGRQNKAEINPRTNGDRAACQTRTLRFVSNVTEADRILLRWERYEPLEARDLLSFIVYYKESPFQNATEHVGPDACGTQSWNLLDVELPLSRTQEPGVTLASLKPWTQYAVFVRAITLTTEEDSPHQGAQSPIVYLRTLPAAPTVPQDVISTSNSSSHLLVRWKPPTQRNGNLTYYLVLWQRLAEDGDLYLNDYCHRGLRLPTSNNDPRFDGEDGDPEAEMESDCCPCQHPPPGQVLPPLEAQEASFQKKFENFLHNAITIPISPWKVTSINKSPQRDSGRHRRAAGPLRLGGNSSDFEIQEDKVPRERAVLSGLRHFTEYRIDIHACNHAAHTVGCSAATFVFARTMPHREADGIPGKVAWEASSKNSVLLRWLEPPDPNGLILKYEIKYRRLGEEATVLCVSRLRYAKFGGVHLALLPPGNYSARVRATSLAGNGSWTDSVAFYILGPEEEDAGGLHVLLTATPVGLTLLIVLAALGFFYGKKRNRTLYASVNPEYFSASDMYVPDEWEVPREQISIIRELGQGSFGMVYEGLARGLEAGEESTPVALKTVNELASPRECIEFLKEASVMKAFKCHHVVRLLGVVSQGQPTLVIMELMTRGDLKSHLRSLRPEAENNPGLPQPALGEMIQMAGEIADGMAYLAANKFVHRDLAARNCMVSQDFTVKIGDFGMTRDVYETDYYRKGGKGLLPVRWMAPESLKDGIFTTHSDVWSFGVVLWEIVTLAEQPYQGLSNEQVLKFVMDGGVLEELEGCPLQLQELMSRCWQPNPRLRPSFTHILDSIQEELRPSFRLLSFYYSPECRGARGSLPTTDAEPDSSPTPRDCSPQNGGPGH
Method: as §1
as §2, with “IRR” for “Abl”, “0.33 mg/ml myelin basic protein,” for “50 μM EAIYAAPFAKKK (SEQ ID NO:206),”

MST2(h) = MST2(h) (Homo sapiens, UniProt Q13188); conditions: read-out: percent residual activity of MST2(h)
Sequence of MST2(h) (Q13188 whole entry): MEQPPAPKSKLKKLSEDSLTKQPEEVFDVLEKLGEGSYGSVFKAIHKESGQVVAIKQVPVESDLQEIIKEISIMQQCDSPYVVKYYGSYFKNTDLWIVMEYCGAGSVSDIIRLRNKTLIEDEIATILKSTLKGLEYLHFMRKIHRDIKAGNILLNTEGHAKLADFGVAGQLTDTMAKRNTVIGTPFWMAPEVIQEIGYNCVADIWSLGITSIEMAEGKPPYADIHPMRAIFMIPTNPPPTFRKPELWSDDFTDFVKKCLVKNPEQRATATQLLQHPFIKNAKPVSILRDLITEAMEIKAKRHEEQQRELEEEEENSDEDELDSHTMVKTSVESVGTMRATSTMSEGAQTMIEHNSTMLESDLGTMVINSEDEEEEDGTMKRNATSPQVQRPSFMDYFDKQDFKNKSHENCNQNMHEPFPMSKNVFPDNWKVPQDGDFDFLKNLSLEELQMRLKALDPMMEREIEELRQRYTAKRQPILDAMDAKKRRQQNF
Method: as §1
as §2, with “MST2” for “Abl”, “0.33 mg/ml myelin basic protein,” for “50 μM EAIYAAPFAKKK (SEQ ID NO:206),”

NEK2(h) = NEK2(h) (Homo sapiens, UniProt P51955); conditions: read-out: percent residual activity of NEK2(h)
Sequence of NEK2(h) (P51955 whole entry): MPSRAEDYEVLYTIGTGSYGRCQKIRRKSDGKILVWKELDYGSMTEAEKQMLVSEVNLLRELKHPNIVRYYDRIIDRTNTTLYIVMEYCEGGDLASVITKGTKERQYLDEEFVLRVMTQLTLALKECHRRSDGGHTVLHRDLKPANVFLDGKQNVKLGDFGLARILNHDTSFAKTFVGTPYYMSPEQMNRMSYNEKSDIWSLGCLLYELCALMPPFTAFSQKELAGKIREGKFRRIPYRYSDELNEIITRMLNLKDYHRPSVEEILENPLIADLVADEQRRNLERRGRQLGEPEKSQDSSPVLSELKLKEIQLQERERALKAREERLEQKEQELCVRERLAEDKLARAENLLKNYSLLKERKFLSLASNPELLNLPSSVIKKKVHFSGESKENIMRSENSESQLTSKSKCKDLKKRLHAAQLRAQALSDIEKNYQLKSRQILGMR
Method: as §1
as §2, with “NEK2” for “Abl”, “0.33 mg/ml myelin basic protein,” for “50 μM EAIYAAPFAKKK (SEQ ID NO:206),”

PKCθ(h) = PKCθ(h) (Homo sapiens, UniProt Q04759); conditions: read-out: percent residual activity of PKCθ(h)
Sequence of PKCθ(h) (Q04759 whole entry): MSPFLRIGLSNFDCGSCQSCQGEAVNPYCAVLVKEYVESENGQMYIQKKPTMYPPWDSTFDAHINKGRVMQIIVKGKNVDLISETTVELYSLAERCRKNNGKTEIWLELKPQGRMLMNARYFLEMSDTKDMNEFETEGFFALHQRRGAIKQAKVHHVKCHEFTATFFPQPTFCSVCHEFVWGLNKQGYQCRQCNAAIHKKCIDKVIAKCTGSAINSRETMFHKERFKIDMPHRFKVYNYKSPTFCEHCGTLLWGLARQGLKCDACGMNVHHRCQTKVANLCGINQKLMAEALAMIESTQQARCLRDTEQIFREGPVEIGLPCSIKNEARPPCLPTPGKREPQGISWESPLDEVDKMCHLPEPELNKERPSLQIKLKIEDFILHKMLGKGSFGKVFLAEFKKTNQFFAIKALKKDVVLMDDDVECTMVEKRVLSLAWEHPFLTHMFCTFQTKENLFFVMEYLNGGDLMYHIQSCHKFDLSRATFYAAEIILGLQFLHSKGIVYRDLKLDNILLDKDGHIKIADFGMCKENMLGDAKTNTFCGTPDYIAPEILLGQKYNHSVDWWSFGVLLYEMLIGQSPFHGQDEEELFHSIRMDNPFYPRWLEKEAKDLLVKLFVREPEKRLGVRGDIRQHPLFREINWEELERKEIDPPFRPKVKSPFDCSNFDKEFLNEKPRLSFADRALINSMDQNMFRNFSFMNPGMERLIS
Method: as §1
as §2, with “PKCθ” for “Abl”, “0.1 mg/ml histone H1,” for “50 μM EAIYAAPFAKKK (SEQ ID NO:206),”

Rsk3(h) = Rsk3(h) (Homo sapiens, UniProt Q15349); conditions: read-out: percent residual activity of Rsk3(h)
Sequence of Rsk3(h) (Q15349 whole entry): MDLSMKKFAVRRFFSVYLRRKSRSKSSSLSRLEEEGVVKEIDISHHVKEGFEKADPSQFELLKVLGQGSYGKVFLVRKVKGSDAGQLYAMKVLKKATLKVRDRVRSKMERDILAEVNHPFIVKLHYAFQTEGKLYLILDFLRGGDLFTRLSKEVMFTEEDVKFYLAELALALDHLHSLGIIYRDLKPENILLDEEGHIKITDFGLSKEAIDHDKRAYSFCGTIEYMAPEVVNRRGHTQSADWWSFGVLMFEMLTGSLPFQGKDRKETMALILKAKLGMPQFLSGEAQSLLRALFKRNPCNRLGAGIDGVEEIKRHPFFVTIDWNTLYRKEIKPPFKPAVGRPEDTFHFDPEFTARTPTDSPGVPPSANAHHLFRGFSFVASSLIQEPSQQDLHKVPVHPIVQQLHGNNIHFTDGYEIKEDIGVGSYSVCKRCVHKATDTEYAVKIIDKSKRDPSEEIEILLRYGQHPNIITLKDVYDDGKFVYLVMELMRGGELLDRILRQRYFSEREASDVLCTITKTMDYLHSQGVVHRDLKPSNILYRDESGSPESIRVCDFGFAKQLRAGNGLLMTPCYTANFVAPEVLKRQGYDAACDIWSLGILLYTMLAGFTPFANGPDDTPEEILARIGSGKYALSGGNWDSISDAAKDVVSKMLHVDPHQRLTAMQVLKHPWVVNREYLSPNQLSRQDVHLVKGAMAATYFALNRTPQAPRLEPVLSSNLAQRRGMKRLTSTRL
Method: as §1
as §2, with “μl, Rsk3” for “μl, Abl”, “EDTA, 30” for “EDTA, 50”, “μM KKKNRTLSVA” for “μM EAIYAAPFAKKK”, “ID NO:212),” for “ID NO:206),”

[1] = 45 micromolar ATP, single replicates
[2] = 45 micromolar ATP, n = 2, read-out: Mean Activity (% Control)
[3] = 45 micromolar ATP, single replicates, read-out: Activity (% Control)
[4] = read-out: percent residual activity of Abl(h)

| Mean (Counts - Blanks) (Abl(h); 45 micromolar ATP) | Activity (% Control) (Abl(h); [1]) | Counts (Abl(h); [1]) | remaining activity at 2.5 µM (Abl(h); [2]) [%] | remaining activity at 2.5 µM (Abl(h); [3]) [%] | remaining activity at 2.5 µM (Abl(h); [4]) [%] | remaining activity at 2.5 µM (IRR(h)) [%] | remaining activity at 2.5 µM (MST2(h)) [%] | remaining activity at 2.5 µM (NEK2(h)) [%] | remaining activity at 2.5 µM (PKCθ(h)) [%] | remaining activity at 2.5 µM (Rsk3(h)) [%] | Structure (SMILES) |
| --- | --- | --- | --- | --- | --- | --- | --- | --- | --- | --- | --- |
| 12522 | 25 | 15236 and 14630 | 26 | 27 | 26 | 97 | 76 | 65 | 91 | 89 | CN1CCCC1CCNC(=O)c1cn2c3c(c(N4CCC(c5cnccn5)C4)c(F)cc3c1=O)Oc1cc3ccccc3cc1-2 (stereo not shown) [Compound A-1] |
| 47944 | 98 | 51051 and 49659 | 100 | 101 | 100 | 103 | 106 | 106 | 108 | 107 | CC(=O)N1CCN(c2ccc3c(=O)c(C(=O)NCCN4CCCC4)c4n(C)c5ccccc5n4c3n2)CC1 [Compound B-1] |
